Experimental data: ChEMBL document CHEMBL4732202, “Identification and Profiling of a Novel Diazaspiro[3.4]octane Chemical Series Active against Multiple Stages of the Human Malaria Parasite Plasmodium falciparum and Optimization Efforts” (J Med Chem, 2021)
One block for each compound: values may come before it.

What was measured:
[1] = Volume of distribution in Balb/c mouse at 3 mg/kg, iv measured upto 24 hrs by LC-MS/MS analysis; format: ADME, organism-based; conditions: in vivo
[2] = Blood clearance in Balb/c mouse at 3 mg/kg, iv measured upto 24 hrs by LC-MS/MS analysis; format: ADME, organism-based; conditions: whole blood
[3] = Unbound average drug concentration in Balb/c mouse at 20 mg/kg, po measured upto 24 hrs by LC-MS/MS analysis; format: ADME, organism-based; conditions: in vivo
[4] = Intrinsic clearance in Balb/c mouse at 3 mg/kg, iv measured upto 24 hrs by LC-MS/MS analysis; format: ADME, organism-based; conditions: in vivo
[5] = Unbound AUC in Balb/c mouse at 20 mg/kg, po measured upto 24 hrs by LC-MS/MS analysis; format: ADME, organism-based; conditions: in vivo
[6] = AUC (0 to infinity) in Balb/c mouse at 3 mg/kg, iv measured upto 24 hrs by LC-MS/MS analysis; format: ADME, organism-based; design: route intravenous, dose 3 mg/kg, time <=24; conditions: in vivo
[7] = Oral bioavailability in Balb/c mouse at 10 mg/kg measured upto 24 hrs by LC-MS/MS analysis; format: ADME, organism-based; conditions: in vivo
[8] = Half life in Balb/c mouse at 3 mg/kg, iv measured upto 24 hrs by LC-MS/MS analysis; format: ADME, organism-based; conditions: in vivo
[9] = Half life in rat liver microsomes at 0.1 uM in presence or absence of NADPH by LC-MS/MS analysis; format: ADME, Microsome
[10] = Half life in mouse liver microsomes at 0.1 uM in presence or absence of NADPH by LC-MS/MS analysis; format: ADME, Microsome
[11] = Half life in human liver microsomes at 0.1 uM in presence or absence of NADPH by LC-MS/MS analysis; format: ADME, Microsome

Vd [1]: 22 L/kg
clearance [2]: 63 mL/min/kg
f(Cave) [3]: 2 nM
CL [4]: 5042 mL/min/kg
fAUC [5]: 3 µmol·min/L
AUC(0-inf) [6]: 1.82 µM·h
bioavailability [7]: 10%
half-life [8]: 240 min
Structure (SMILES): O=C(Cc1ccc(O)cc1)N1CC(CNc2ccccc2)C2(C1)CN(c1ccc(F)cc1)C2 (stereo not drawn)

half-life at 0.1 µM [9]: 24 min
half-life at 0.1 µM [10]: 20 min
half-life at 0.1 µM [11]: 34 min
Structure (SMILES): N[C@H](Cc1ccc(O)cc1)C(=O)N1CC(CNc2ccc(F)cc2)C2(C1)CN(c1cc(F)cc(F)c1)C2 (mixture of isomers)

half-life at 0.1 µM [9]: 44 min
half-life at 0.1 µM [10]: 48 min
half-life at 0.1 µM [11]: 25 min
Structure (SMILES): N[C@@H](C(=O)N1CC(CNc2ccc(F)cc2)C2(C1)CN(c1cc(F)cc(F)c1)C2)c1ccc(O)cc1 (mixture of isomers)

half-life at 0.1 µM [9]: 6.7 min
half-life at 0.1 µM [10]: 11 min
half-life at 0.1 µM [11]: 9 min
Structure (SMILES): O=C([C@@H](O)c1ccc(O)cc1)N1CC(CNc2ccc(F)cc2)C2(C1)CN(c1cc(F)cc(F)c1)C2 (mixture of isomers)

half-life at 0.1 µM [9]: 4 min
half-life at 0.1 µM [10]: 10 min
half-life at 0.1 µM [11]: 6 min
Structure (SMILES): C[C@H](C(=O)N1CC(CNc2ccc(F)cc2)C2(C1)CN(c1cc(F)cc(F)c1)C2)c1ccc(O)cc1 (mixture of isomers)

half-life at 0.1 µM [9]: 150 min
Vd [1]: 23.5 L/kg
clearance [2]: 33.7 mL/min/kg
f(Cave) [3]: 2 nM
CL [4]: 2155 mL/min/kg
fAUC [5]: 3 µmol·min/L
AUC(0-inf) [6]: 3 µM·h
bioavailability [7]: < 1%
half-life at 0.1 µM [10]: 150 min
half-life at 0.1 µM [11]: 150 min
half-life [8]: 480 min
Structure (SMILES): N[C@H](C(=O)N1CC(CNc2ccc(F)cc2)C2(C1)CN(c1cc(F)cc(F)c1)C2)c1ccc(O)cc1 (mixture of isomers; form 1)

half-life at 0.1 µM [9]: 40 min
half-life at 0.1 µM [10]: 42 min
half-life at 0.1 µM [11]: 46 min
Structure (SMILES): O=C(Cc1cc(F)c(O)c(F)c1)N1CC(CNc2ccc(F)cc2)C2(C1)CN(c1ccc(F)cc1)C2 (racemic)

half-life at 0.1 µM [9]: 150 min
half-life at 0.1 µM [10]: 150 min
half-life at 0.1 µM [11]: 150 min
Structure (SMILES): O=C(CN1CCC(O)CC1)N1CC(CNc2ccc(F)cc2)C2(C1)CN(c1ccc(F)cc1)C2 (racemic)

half-life at 0.1 µM [9]: 14 min
half-life at 0.1 µM [10]: 13 min
half-life at 0.1 µM [11]: 17 min
Structure (SMILES): O=C(Cc1ccc(O)c(F)c1)N1CC(CNc2ccc(F)cc2)C2(C1)CN(c1ccc(F)cc1)C2 (racemic)

half-life at 0.1 µM [9]: 25 min
half-life at 0.1 µM [10]: 16 min
half-life at 0.1 µM [11]: 22 min
Structure (SMILES): O=C(Cc1ccc(O)c(Cl)c1)N1CC(CNc2ccc(F)cc2)C2(C1)CN(c1ccc(F)cc1)C2 (racemic)

half-life at 0.1 µM [9]: 7.6 min
half-life at 0.1 µM [10]: 6.6 min
half-life at 0.1 µM [11]: 7.6 min
Structure (SMILES): O=C(Cc1ccc(C(F)F)cc1)N1CC(CNc2ccc(F)cc2)C2(C1)CN(c1ccc(F)cc1)C2 (racemic)

half-life at 0.1 µM [9]: 16 min
half-life at 0.1 µM [10]: 24 min
half-life at 0.1 µM [11]: 15 min
Structure (SMILES): O=C(Cc1ccc(O)c(C(F)(F)F)c1)N1CC(CNc2ccc(F)cc2)C2(C1)CN(c1cc(F)cc(F)c1)C2 (racemic)

half-life at 0.1 µM [9]: 52 min
half-life at 0.1 µM [10]: 17 min
half-life at 0.1 µM [11]: 21 min
Structure (SMILES): O=C(Cc1ccc(O)nc1)N1CC(CNc2ccc(F)cc2)C2(C1)CN(c1cc(F)cc(F)c1)C2 (racemic)

clearance [2]: 3 mL/min/kg
f(Cave) [3]: 3092 nM
CL [4]: 19 mL/min/kg
fAUC [5]: 4452 µmol·min/L
bioavailability [7]: > 100%
Structure (SMILES): CS(=O)(=O)c1ccc(-c2cnc(N)c(-c3ccc(C(F)(F)F)nc3)c2)cc1 [MMV-048]

Continued, compound first:

Structure (SMILES): Nc1ccc(C[C@@H](N)C(=O)N2CC(CNc3ccc(F)cc3)C3(C2)CN(c2cc(F)cc(F)c2)C3)cc1 (mixture of isomers)
half-life at 0.1 µM [9]: 150 min
Vd [1]: 20.7 L/kg
clearance [2]: 40.6 mL/min/kg
Cave [3]: 1 nM
CL [4]: 2959 mL/min/kg
fAUC [5]: 2 µmol·min/L
AUC(0-inf) [6]: 2.48 µM·h
bioavailability [7]: 8%
half-life at 0.1 µM [10]: 150 min
half-life at 0.1 µM [11]: 150 min
half-life [8]: 342 min

Structure (SMILES): C[C@@H](C(=O)N1CC(CNc2ccc(F)cc2)C2(C1)CN(c1cc(F)cc(F)c1)C2)c1ccc(O)cc1 (mixture of isomers)
half-life at 0.1 µM [9]: 6 min
half-life at 0.1 µM [10]: 7 min
half-life at 0.1 µM [11]: 6 min

Structure (SMILES): O=C([C@H](O)c1ccc(O)cc1)N1CC(CNc2ccc(F)cc2)C2(C1)CN(c1cc(F)cc(F)c1)C2 (mixture of isomers)
half-life at 0.1 µM [9]: 7.9 min
half-life at 0.1 µM [10]: 4.4 min
half-life at 0.1 µM [11]: 6.8 min

Structure (SMILES): O=C(N1CC(CNc2ccc(F)cc2)C2(C1)CN(c1cc(F)cc(F)c1)C2)C(F)(F)c1ccc(O)c(C(F)(F)F)c1 (racemic)
half-life at 0.1 µM [9]: 7 min
half-life at 0.1 µM [10]: 16 min
half-life at 0.1 µM [11]: 18 min

Structure (SMILES): O=C(Cc1ncc(O)cn1)N1CC(CNc2ccc(F)cc2)C2(C1)CN(c1cc(F)cc(F)c1)C2 (racemic)
half-life at 0.1 µM [9]: 68 min
half-life at 0.1 µM [10]: 67 min
half-life at 0.1 µM [11]: 64 min

Structure (SMILES): N#Cc1cc(CC(=O)N2CC(CNc3ccc(F)cc3)C3(C2)CN(c2cc(F)cc(F)c2)C3)ccc1O (racemic)
half-life at 0.1 µM [9]: 31 min
half-life at 0.1 µM [10]: 70 min
half-life at 0.1 µM [11]: 27 min

Structure (SMILES): O=C(N1CC(CNc2ccc(F)cc2)C2(C1)CN(c1cc(F)cc(F)c1)C2)C(F)(F)c1ccc(O)cc1 (racemic)
half-life at 0.1 µM [9]: 11 min
half-life at 0.1 µM [10]: 12 min
half-life at 0.1 µM [11]: 23 min

Structure (SMILES): NC(=O)c1cc(CC(=O)N2CC(CNc3ccc(F)cc3)C3(C2)CN(c2cc(F)cc(F)c2)C3)ccc1O (racemic)
half-life at 0.1 µM [9]: 8 min
half-life at 0.1 µM [10]: 21 min
half-life at 0.1 µM [11]: 11 min

Structure (SMILES): O=C(Cc1cc[n+]([O-])cc1)N1CC(CNc2ccc(F)cc2)C2(C1)CN(c1cc(F)cc(F)c1)C2 (racemic)
half-life at 0.1 µM [9]: 150 min
half-life at 0.1 µM [10]: 150 min
half-life at 0.1 µM [11]: 150 min

Structure (SMILES): O=C(Cc1ccnc(O)c1)N1CC(CNc2ccc(F)cc2)C2(C1)CN(c1cc(F)cc(F)c1)C2 (racemic)
half-life at 0.1 µM [9]: 20 min
half-life at 0.1 µM [10]: 17 min
half-life at 0.1 µM [11]: 12 min

Structure (SMILES): O=C(Cc1ccc(O)cn1)N1CC(CNc2ccc(F)cc2)C2(C1)CN(c1cc(F)cc(F)c1)C2 (racemic)
half-life at 0.1 µM [9]: 12 min
half-life at 0.1 µM [10]: 11 min
half-life at 0.1 µM [11]: 12 min

Structure (SMILES): CC1(C)c2nc(-c3ccc(F)cc3)c(Nc3ccc(F)cc3)n2CCN1C(=O)CN [GANAPLACIDE]
clearance [2]: 37.8 mL/min/kg
f(Cave) [3]: 45 nM
CL [4]: 548 mL/min/kg
fAUC [5]: 65.4 µmol·min/L
bioavailability [7]: 74%
